Test results from patent US20220081444A1, “6,7-DIHYDRO-4H-PYRAZOLO[1,5-A]PYRAZINE INDOLE-2-CARBOXAMIDES ACTIVE AGAINST THE HEPATITIS B VIRUS (HBV)” (AiCuris GmbH & Co. KG, priority 2018, published 2022).
Where a name gives a salt, the structure may show the parent alone. Read-outs that look alike come from different tables or passages of the source.

Legend:
[1] = tested on: HBV; details: read-out: Cell Activity (EC50)
[2] = tested on: HepAD38 cells; assay: Cell viability assay (AlamarBlue cytotoxicity); details: HepAD38 cells in the presence of 0.3 μg/ml tetracycline, six days incubation
[3] = in vitro; details: human
[4] = Hepatitis B virus, HePAD38, 144 h

Compound	EC50 [1, 4] [nM]	other results
3-yl)methyl]-4H,5H, 6H,7H-pyrazolo[1,5-a]pyrazin-2-amine [Example 25]	–	EC50 ([1]; HBV DNA in HepAD38 supernatant at day 6, qPCR): < 1000 nM; CC50 [2]: > 10000 nM
O=C(Nc1cc2n(n1)CCN(C(=O)c1cc3ccccc3[nH]1)C2)C1CC2CC1CN2 (stereo not drawn) [Example 82, N-[5-(1H-indole-2-carbonyl)-4H,5H,6H,7H-pyrazolo[1,5-a]pyrazin-2-yl]-2-azabicyclo[2.2.1]heptane-5-carboxamide dihydrochloride]	1000 to 10000	CC50 [3]: > 10000 nM
O=C(Nc1cc2n(n1)CCN(C(=O)c1cc3ccccc3[nH]1)C2)[C@H]1CCNC[C@@H]1F [Example 86, (3R,4R)-3-fluoro-N-[5-(1H-indole-2-carbonyl)-4H,5H,6H,7H-pyrazolo[1,5-a]pyrazin-2-yl]piperidine-4-carboxamide dihydrochloride]	< 1000	CC50 [3]: > 10000 nM
CC1(S(=O)(=O)Nc2cc3n(n2)CCN(C(=O)c2cc4ccccc4[nH]2)C3)CC1 [Example 44, N-[5-(1H-indole-2-carbonyl)-4H,5H,6H,7H-pyrazolo[1,5-a]pyrazin-2-yl]-1-methylcyclopropane-1-sulfonamide]	< 1000	CC50 [3]: > 10000 nM
CC1Cn2nc(N)cc2CN1C(=O)c1cc2c(Cl)cccc2[nH]1 (stereo not drawn) [Example 9, 5-(4-chloro-1H-indole-2-carbonyl)-6-methyl-4H,5H,6H,7H-pyrazolo[15-a]pyrazin-2-amine]	< 1000	–
CCc1cc(F)cc2[nH]c(C(=O)N3CCn4nc(NCC5CCOC5)cc4C3)cc12 (stereo not drawn) [Example 29, 5-(4-ethyl-6-fluoro-1H-indole-2-carbonyl)-N-[(oxolan-3-yl)methyl]-4H,5H,6H,7H-pyrazolo[1,5-a]pyrazin-2-amine]	< 1000	CC50 [3]: > 10000 nM
COC(=O)N1CCC(C(=O)Nc2cc3n(n2)CCN(C(=O)c2cc4ccccc4[nH]2)C3)CC1 [Example 58, Methyl 4-{[5-(1H-indole-2-carbonyl)-4H,5H,6H,7H-pyrazolo[1,5-a]pyrazin-2-yl]carbamoyl}piperidine-1-carboxylate]	< 1000	–
O=C(c1cc2ccccc2[nH]1)N1CCn2nc(NCc3ccccc3)cc2C1 [Example 56, N-benzyl-5-(1H-indole-2-carbonyl)-4H,5H,6H,7H-pyrazolo[1,5-a]pyrazin-2-amine]	1000 to 10000	–
CN1CCC(C(=O)Nc2cc3n(n2)CCN(C(=O)c2cc4ccccc4[nH]2)C3)C(F)C1 (stereo not drawn) [Example 88, 3-fluoro-N-[5-(1H-indole-2-carbonyl)-4H,5H,6H,7H-pyrazolo[1,5-a]pyrazin-2-yl]-1-methylpiperidine-4-carboxamide]	< 1000	–
CNC(=O)Nc1cc2n(n1)CCN(C(=O)c1cc3ccccc3[nH]1)C2 [Example 67, 1-[5-(1H-indole-2-carbonyl)-4H,5H,6H,7H-pyrazolo[1,5-a]pyrazin-2-yl]-3-methylurea]	< 1000	–
O=C(c1cc2ccccc2[nH]1)N1CCn2nc(NC3CCOC3)cc2C1 (stereo not drawn) [Example 1, 5-(1H-indole-2-carbonyl)-N-(oxolan-3-yl)-4H,5H,6H,7H-pyrazolo[1,5-a]pyrazin-2-amine]	1000 to 10000	–
O=C(Nc1cc2n(n1)CCN(C(=O)c1cc3ccccc3[nH]1)C2)C1CCN(C2CC2)CC1 [Example 74, 1-cyclopropyl-N-[5-(1H-indole-2-carbonyl)-4H,5H,6H,7H-pyrazolo[1,5-a]pyrazin-2-yl]piperidine-4-carboxamide]	< 1000	–
CN1CCC(C(=O)Nc2cc3n(n2)CCN(C(=O)c2cc4ccccc4[nH]2)C3)C(F)(F)C1 (stereo not drawn) [Example 87, 3,3-difluoro-N-[5-(1H-indole-2-carbonyl)-4H,5H,6H,7H-pyrazolo[1,5-a]pyrazin-2-yl]-1-methylpiperidine-4-carboxamide]	< 1000	–
CN1CC[C@H](C(=O)Nc2cc3n(n2)CCN(C(=O)c2cc4ccccc4[nH]2)C3)[C@@H](F)C1 [Example 89, (3R,4R)-3-fluoro-N-[5-(1H-indole-2-carbonyl)-4H,5H,6H,7H-pyrazolo[1,5-a]pyrazin-2-yl]-1-methylpiperidine-4-carboxamide]	< 1000	–
O=C(c1cc2ccccc2[nH]1)N1CCn2nc(NC3(CO)CCC3)cc2C1 [Example 90, (1-{[5-(1H-indole-2-carbonyl)-4H,5H,6H,7H-pyrazolo[1,5-a]pyrazin-2-yl]amino}cyclobutyl)methanol]	< 1000	–
CCS(=O)(=O)Nc1cc2n(n1)CCN(C(=O)c1cc3ccccc3[nH]1)C2 [Example 45, N-[5-(1H-indole-2-carbonyl)-4H,5H,6H,7H-pyrazolo[1,5-a]pyrazin-2-yl]ethane-1-sulfonamide]	< 1000	–
